In general, melting point refers to the temperature of the solid-liquid transition.

In the case of `Cc1nc(NC(=O)c2cnn3c(C(F)(F)F)cc(-c4ccc(C(F)(F)F)cc4)nc23)sc1S(=O)(=O)NCCN(C)C` [Example 58, 7-Trifluoromethyl-5-(4-trifluoromethyl-phenyl)-pyrazolo[1,5-a]pyrimidine-3-carboxylic acid [5-(2-dimethylamino-ethylsulfamoyl)-4-methyl-thiazol-2-yl]-amide], the melting point came out at 235 °C.

Molecule `CC(C)(CO)NS(=O)(=O)c1cnc(NC(=O)c2cnn3c(C(F)(F)F)cc(-c4ccc(C(F)(F)F)cc4)nc23)s1` [Example 59, 7-Trifluoromethyl-5-(4-trifluoromethyl-phenyl)-pyrazolo[1,5-a]pyrimidine-3-carboxylic acid [5-(2-hydroxy-1,1-dimethyl-ethylsulfamoyl)-thiazol-2-yl]-amide] yielded a melting point of 292 °C.

`CC(C)(CO)NS(=O)(=O)c1cnc(NC(=O)c2cnn3c(C(F)F)cc(-c4ccc(C(F)(F)F)cc4)nc23)s1` [Example 60, 7-Difluoromethyl-5-(4-trifluoromethyl-phenyl)-pyrazolo[1,5-a]pyrimidine-3-carboxylic acid [5-(2-hydroxy-1,1-dimethyl-ethylsulfamoyl)-thiazol-2-yl]-amide] showed a melting point of 280 °C.

For `CC(C)(CO)NS(=O)(=O)c1cc(NC(=O)c2cnn3c(C4CC4)cc(-c4ccc(Cl)cc4)nc23)c(Cl)s1` [Example 61, 5-(4-Chloro-phenyl)-7-cyclopropyl-pyrazolo[1,5-a]pyrimidine-3-carboxylic acid [2-chloro-5-(2-hydroxy-1,1-dimethyl-ethylsulfamoyl)-thiophen-3-yl]-amide], the melting point was 238 to 241 °C.

For the molecule `Cc1nc(NC(=O)c2cnn3c(C4CC4)cc(-c4ccc(Cl)cc4)nc23)sc1S(=O)(=O)NC(C)(C)CO` [Example 62, 5-(4-Chloro-phenyl)-7-cyclopropyl-pyrazolo[1,5-a]pyrimidine-3-carboxylic acid [5-(2-hydroxy-1,1-dimethyl-ethylsulfamoyl)-4-methyl-thiazol-2-yl]-amide], the melting point was 293 to 294 °C.

The molecule `Cc1nc(NC(=O)c2cnn3c(C(F)F)cc(-c4ccc(C(F)(F)F)cc4)nc23)sc1S(=O)(=O)NC(CO)CO` [Example 63, 7-Difluoromethyl-5-(4-trifluoromethyl-phenyl)-pyrazolo[1,5-a]pyrimidine-3-carboxylic acid [5-(2-hydroxy-1-hydroxymethyl-ethylsulfamoyl)-4-methyl-thiazol-2-yl]-amide] gave a melting point of 217 °C.

For the molecule `Cc1nc(NC(=O)c2cnn3c(C(F)(F)F)cc(-c4ccc(C(F)(F)F)cc4)nc23)sc1S(=O)(=O)NC(CO)CO` [Example 64, 7-Trifluoromethyl-5-(4-trifluoromethyl-phenyl)-pyrazolo[1,5-a]pyrimidine-3-carboxylic acid [5-(2-hydroxy-1-hydroxymethyl-ethylsulfamoyl)-4-methyl-thiazol-2-yl]-amide], the melting point turned out to be 215 °C.

`NCCNS(=O)(=O)c1cc(NC(=O)c2cnn3c(C(F)F)cc(-c4ccc(C(F)(F)F)cc4)nc23)c(Cl)s1` [Example 65, 7-Difluoromethyl-5-(4-trifluoromethyl-phenyl)-pyrazolo[1,5-a]pyrimidine-3-carboxylic acid [5-(2-amino-ethylsulfamoyl)-2-chloro-thiophen-3-yl]-amide]: the melting point came to 150 °C.

The molecule `Cc1nc(NC(=O)c2cnn3c(C(F)F)cc(-c4ccc(C(F)(F)F)cc4)nc23)sc1S(=O)(=O)N1CCN(C)CC1` [Example 68, 7-Difluoromethyl-5-(4-trifluoromethyl-phenyl)-pyrazolo[1,5-a]pyrimidine-3-carboxylic acid [4-methyl-5-(4-methyl-piperazine-1-sulfonyl)-thiazol-2-yl]-amide] returned a melting point of 269 °C.

`Cc1nc(NC(=O)c2cnn3c(C(F)(F)F)cc(-c4ccc(C(F)(F)F)cc4)nc23)sc1S(=O)(=O)N1CCN(C)CC1` [Example 69, 7-Trifluoromethyl-5-(4-trifluoromethyl-phenyl)-pyrazolo[1,5-a]pyrimidine-3-carboxylic acid [4-methyl-5-(4-methyl-piperazine-1-sulfonyl)-thiazol-2-yl]-amide] registered a melting point of 273 °C.

Molecule `Cc1nc(NC(=O)c2cnn3c(C(F)F)cc(-c4ccc(C(F)(F)F)cc4)nc23)sc1S(=O)(=O)N(C)CCO` [Example 70, 7-Difluoromethyl-5-(4-trifluoromethyl-phenyl)-pyrazolo[1,5-a]pyrimidine-3-carboxylic acid {5-[(2-hydroxy-ethyl)-methyl-sulfamoyl]-4-methyl-thiazol-2-yl}-amide] returned a melting point of 216 °C.

The molecule `Cc1nc(NC(=O)c2cnn3c(C(F)(F)F)cc(-c4ccc(C(F)(F)F)cc4)nc23)sc1S(=O)(=O)N(C)CCO` [Example 71, 7-Trifluoromethyl-5-(4-trifluoromethyl-phenyl)-pyrazolo[1,5-a]pyrimidine-3-carboxylic acid {5-[(2-hydroxy-ethyl)-methyl-sulfamoyl]-4-methyl-thiazol-2-yl}-amide] had a melting point of 266 °C.

Molecule `CN(CCO)S(=O)(=O)c1cc(NC(=O)c2cnn3c(C(F)F)cc(-c4ccc(C(F)(F)F)cc4)nc23)c(Cl)s1` [Example 72, 7-Difluoromethyl-5-(4-trifluoromethyl-phenyl)-pyrazolo[1,5-a]pyrimidine-3-carboxylic acid {2-chloro-5-[(2-hydroxy-ethyl)-methyl-sulfamoyl]-thiophen-3-yl}-amide] gave a melting point of 231 °C.

With `CN1CCN(S(=O)(=O)c2cc(NC(=O)c3cnn4c(C(F)F)cc(-c5ccc(C(F)(F)F)cc5)nc34)c(Cl)s2)CC1` [Example 73, 7-Difluoromethyl-5-(4-trifluoromethyl-phenyl)-pyrazolo[1,5-a]pyrimidine-3-carboxylic acid [2-chloro-5-(4-methyl-piperazine-1-sulfonyl)-thiophen-3-yl]-amide], the melting point amounted to 293 °C.

`CN1CCN(S(=O)(=O)c2cc(NC(=O)c3cnn4c(C(F)(F)F)cc(-c5ccc(C(F)(F)F)cc5)nc34)c(Cl)s2)CC1` [Example 74, 7-Trifluoromethyl-5-(4-trifluoromethyl-phenyl)-pyrazolo[1,5-a]pyrimidine-3-carboxylic acid [2-chloro-5-(4-methyl-piperazine-1-sulfonyl)-thiophen-3-yl]-amide] showed a melting point of 301 °C.

As for `CN(CCO)S(=O)(=O)c1cc(NC(=O)c2cnn3c(C(F)(F)F)cc(-c4ccc(C(F)(F)F)cc4)nc23)c(Cl)s1` [Example 77, 7-Trifluoromethyl-5-(4-trifluoromethyl-phenyl)-pyrazolo[1,5-a]pyrimidine-3-carboxylic acid {2-chloro-5-[(2-hydroxy-ethyl)-methyl-sulfamoyl]-thiophen-3-yl}-amide], the melting point came out at 221 °C.

In turn, `NCCNS(=O)(=O)c1cc(NC(=O)c2cnn3c(C(F)(F)F)cc(-c4ccc(C(F)(F)F)cc4)nc23)c(Cl)s1` [Example 78, 7-Trifluoromethyl-5-(4-trifluoromethyl-phenyl)-pyrazolo[1,5-a]pyrimidine-3-carboxylic acid [5-(2-amino-ethylsulfamoyl)-2-chloro-thiophen-3-yl]-amide] returned a melting point of 195 °C.

The values above are taken from US7361659B2, “Pyrrazolo-pyrimidine derivatives” (Hoffmann-La Roche Inc., priority 2005, dated 2008).
